Laboratory results published in ChEMBL document CHEMBL1201862, “PubChem BioAssay data set” (2004).
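How tested: cells in 96-well plates exposed to compound for 48 hours at five concentrations. Abbreviation: GI50, concentration required for 50% inhibition of growth.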 Activity calls are given as the source filed them. Rule as the data show it: active = GI50 up to about 1.1 µM and inactive = higher.

Tests used:
Test in all cases: growth of human tumour cells (NCI), 48 h
[1] = test system: A549
[2] = test system: HCT-15
[3] = test system: CCRF-CEM
[4] = test system: K562
[5] = test system: HL-60
[6] = test system: SR
[7] = test system: ACHN
[8] = test system: HT-29
[9] = test system: SN12C
[10] = test system: HOP-92
[11] = test system: SNB-19
[12] = test system: OVCAR-4
[13] = test system: 786-0
[14] = test system: NCI-H226
[15] = test system: UO-31
[16] = test system: SW-620
[17] = test system: UACC-62
[18] = test system: KM-20L2
[19] = test system: PC-3
[20] = test system: MDA-MB-231

SMILES	GI50 [1]	GI50 [2]	GI50 [3]	GI50 [4]	GI50 [5]	GI50 [6]	GI50 [7]	GI50 [8]	GI50 [9]	GI50 [10]	GI50 [11]	GI50 [12]	GI50 [13]	GI50 [14]	GI50 [15]	GI50 [16]	GI50 [17]	GI50 [18]	GI50 [19]	GI50 [20]
OC(c1ccccc1)(c1ccccc1)c1ccccn1	> 100 µM (inactive)	> 100 µM	> 100 µM (inactive)	> 100 µM (inactive)	71.3 µM (inactive)	> 100 µM (inactive)	> 100 µM (inactive)	> 100 µM (inactive)	> 100 µM (inactive)	> 100 µM (inactive)	> 100 µM (inactive)	> 100 µM (inactive)	> 100 µM (inactive)	> 100 µM (inactive)	> 100 µM (inactive)	> 100 µM (inactive)	> 100 µM (inactive)	> 100 µM (inactive)		
CC(C)OC(=O)Nc1c([N+](=O)[O-])cc(C(F)(F)F)cc1[N+](=O)[O-]	> 100 µM (inactive)	> 100 µM	> 100 µM (inactive)	> 46.5 µM (inactive)	> 100 µM (inactive)	> 67.5 µM (inactive)	> 100 µM (inactive)	> 100 µM (inactive)	> 91 µM (inactive)	33 µM (inactive)	41.1 µM (inactive)	> 100 µM (inactive)	15.9 µM (inactive)	> 89.1 µM (inactive)	> 90.2 µM (inactive)	> 100 µM (inactive)	> 100 µM (inactive)	> 100 µM (inactive)	> 100 µM (inactive)	59.4 µM (inactive)
N#CC1(C#N)C2C=CC(c3coc4cccc2c34)C1(C#N)C#N (centres undefined)	17.9 µM (inactive)	7.08 µM	1.11 µM (active)	2.27 µM (inactive)	1.45 µM (inactive)	3.01 µM (inactive)	5.53 µM (inactive)	18.9 µM (inactive)	11 µM (inactive)	18 µM (inactive)	18.8 µM (inactive)	31.8 µM (inactive)	20.5 µM (inactive)	19 µM (inactive)	12.8 µM (inactive)	1.61 µM (inactive)	10.2 µM (inactive)	18.5 µM (inactive)		
C/C=C1\Oc2ccc(OC)cc2S1(=O)=O	> 100 µM (inactive)	> 100 µM	> 100 µM (inactive)	> 100 µM (inactive)	> 100 µM (inactive)	> 100 µM (inactive)	> 100 µM (inactive)	> 100 µM (inactive)	> 100 µM (inactive)	> 100 µM (inactive)	> 100 µM (inactive)	> 100 µM (inactive)	> 100 µM (inactive)	> 100 µM (inactive)	> 100 µM (inactive)	> 100 µM (inactive)	> 100 µM (inactive)	> 100 µM (inactive)		
CC(C)CC1CC2C(=O)N(c3ccccc3)C(=O)C2c2[nH]c3ccccc3c21 (centres undefined)	22.4 µM (inactive)	17.3 µM	16 µM (inactive)	6.1 µM (inactive)	15.3 µM (inactive)	10.4 µM (inactive)	38 µM (inactive)	51.9 µM (inactive)	13.9 µM (inactive)	18.6 µM (inactive)	40.9 µM (inactive)	8.3 µM (inactive)	66.5 µM (inactive)	24.5 µM (inactive)	26.4 µM (inactive)	23.8 µM (inactive)	12.4 µM (inactive)	> 100 µM (inactive)		
CC1(C)C(=O)C(O)=CC2C1=CCC1C2(C)C(=O)CC2(C)C(C(C)(O)C(=O)CC(O)C(C)(C)O)C(O)CC12C (centres undefined)	3.04 µM (inactive)	3.18 µM	3.01 µM (inactive)	4.66 µM (inactive)	3.17 µM (inactive)	4 µM (inactive)	2.3 µM (inactive)	3.35 µM (inactive)	4.98 µM (inactive)	2.38 µM (inactive)	3.13 µM (inactive)	2.82 µM (inactive)	2.45 µM (inactive)	2.86 µM (inactive)	2.02 µM (inactive)	3.57 µM (inactive)	5.52 µM (inactive)	3.33 µM (inactive)		
C=C(CN(CC(=C)C(=O)c1ccccc1)C(C)(C)C)C(=O)c1ccccc1	28.4 µM (inactive)		1.5 µM (inactive)	3.01 µM (inactive)	2.53 µM (inactive)	2.1 µM (inactive)	8.99 µM (inactive)	18.1 µM (inactive)	16.3 µM (inactive)	5.62 µM (inactive)	23.3 µM (inactive)	11.6 µM (inactive)	11.3 µM (inactive)	24 µM (inactive)	11.7 µM (inactive)	2.82 µM (inactive)	17.2 µM (inactive)	18.7 µM (inactive)		
Cc1cc2c(=O)cc(-c3ccc(O)cc3)oc2c(C(=O)O)c1C	> 100 µM (inactive)	> 100 µM	> 100 µM (inactive)	> 100 µM (inactive)	> 100 µM (inactive)	> 100 µM (inactive)	> 100 µM (inactive)	> 100 µM (inactive)	> 100 µM (inactive)	> 100 µM (inactive)	> 100 µM (inactive)	> 100 µM (inactive)	> 100 µM (inactive)	> 100 µM (inactive)	> 100 µM (inactive)	> 100 µM (inactive)	> 100 µM (inactive)	> 100 µM (inactive)		
Nc1nc2c3nc(Nc4ccccc4)sc3nc(=S)n2c2sc(Nc3ccccc3)nc12	> 100 µM (inactive)	> 100 µM		> 100 µM (inactive)	> 100 µM (inactive)	5.19 µM (inactive)	> 100 µM (inactive)	> 100 µM (inactive)	65.5 µM (inactive)	4.66 µM (inactive)	40.1 µM (inactive)	> 100 µM (inactive)	73.8 µM (inactive)	> 100 µM (inactive)	> 100 µM (inactive)	> 100 µM (inactive)	46.7 µM (inactive)	> 100 µM (inactive)		
CCOC(=O)C/N=c1\nc(SC)sc2c(C(=O)OCC)nc(Sc3ccccc3)n12	> 10 µM (inactive)		8.13 µM (inactive)	16.1 µM (inactive)	> 100 µM (inactive)	4.74 µM (inactive)		> 100 µM (inactive)	91.4 µM (inactive)	20.8 µM (inactive)		41.2 µM (inactive)	21.6 µM (inactive)	26 µM (inactive)	17.8 µM (inactive)	> 100 µM (inactive)	> 100 µM (inactive)	> 100 µM (inactive)		
Cc1c(C(=O)/C=C/C=C/c2ccccc2)[n+]([O-])c2ccccc2[n+]1[O-]	22.9 µM (inactive)	15.2 µM	34 µM (inactive)	31.8 µM (inactive)	26.1 µM (inactive)		25.7 µM (inactive)	> 10 µM (inactive)	23.5 µM (inactive)	18 µM (inactive)	35.5 µM (inactive)	31.2 µM (inactive)	21.9 µM (inactive)	64.3 µM (inactive)	38.4 µM (inactive)	22.4 µM (inactive)	16 µM (inactive)	38 µM (inactive)		
CCCCC(=O)OC[n+]1ccc2c(C)c3[nH]c4ccccc4c3c(C)c2c1	0.267 µM (active)	0.222 µM	0.0432 µM (active)	0.186 µM (active)	0.378 µM (active)	0.0895 µM (active)	0.187 µM (active)	0.46 µM (active)	0.376 µM (active)	1.62 µM (inactive)	0.466 µM (active)	1.01 µM (active)	0.298 µM (active)	0.475 µM (active)	0.701 µM (active)	0.359 µM (active)	1.26 µM (inactive)	0.687 µM (active)	0.298 µM (active)	0.174 µM (active)
Cc1ccc(-c2cc(-c3ccco3)nc(N)n2)o1	> 100 µM (inactive)	> 100 µM	> 100 µM (inactive)	> 100 µM (inactive)	> 100 µM (inactive)	> 100 µM (inactive)	> 100 µM (inactive)	> 100 µM (inactive)	> 100 µM (inactive)		> 100 µM (inactive)	> 100 µM (inactive)	> 100 µM (inactive)	> 100 µM (inactive)	58.2 µM (inactive)	> 100 µM (inactive)	> 100 µM (inactive)	> 100 µM (inactive)		
CCCCC(C(=O)C(=O)Nc1ccccc1CC)C(=O)C(C)C (centres undefined)	> 100 µM (inactive)	> 100 µM	> 100 µM (inactive)	> 100 µM (inactive)	> 100 µM (inactive)		> 100 µM (inactive)	> 100 µM (inactive)	> 100 µM (inactive)	> 100 µM (inactive)	> 100 µM (inactive)	> 100 µM (inactive)	> 100 µM (inactive)	> 100 µM (inactive)	> 100 µM (inactive)	> 100 µM (inactive)	> 100 µM (inactive)	> 100 µM (inactive)		
CC(C)(C)C1=CC(=C(P(=O)(O)O)P(=O)(O)O)C=C(C(C)(C)C)C1=O	> 50 µM (inactive)	> 50 µM	> 50 µM (inactive)	> 50 µM (inactive)	> 50 µM (inactive)		> 50 µM (inactive)	> 50 µM (inactive)		> 50 µM (inactive)	> 50 µM (inactive)	> 50 µM (inactive)	> 50 µM (inactive)	> 50 µM (inactive)	> 50 µM (inactive)	> 50 µM (inactive)	> 50 µM (inactive)	> 50 µM (inactive)		
